“Also recorded” adds a separate entry of the source.
Assays:
[1] = tested on: Krit1^ECKO BMEC; assay: ZO-1 tight junction staining in BMEC after Krit1 inactivation (immunofluorescence); type: cell-based, mouse
Description: (§1) BMEC at passages 1-3 were maintained at 37° C. in 95% air and 5% CO2 and were grown to 85% confluence and treated for 48 h with 5 μM 4-hydroxy-tamoxifen (Sigma, H7904) after which the medium was replaced with medium lacking 4-hydroxy-tamoxifen and cells were harvested after 72 hr in culture. For TSP1 and 3TSR addition experiments, after 24 h in regular medium, the 5 nM mrTSP1 (R&D systems, 7859-TH), 20 nM 3TSR, or vehicle were added. After 48 hr a second dose of TSP1, 3TSR, or vehicle were added and cells were harvested after an additional 24 h (FIG. 11a-11d).
BMEC were grown to confluence on collagen coated cover glass (Fisher Scientific, 12-545-81) and cells were fixed for 10 min at room temperature with 4% paraformaldehyde (PFA) in phosphate-buffered saline (PBS; pH 7.4) and then permeabilized with 0.5% Triton X-100 in PBS for 5 min. […]
The slides were viewed with a high-resolution SP5 confocal microscope (Leica Microsystems) and the images were captured with Leica application suite (LAS) software (Leica Microsystems). […] The quantification analysis was performed using Volocity® software on high-resolution confocal images.

[2] = tested on: Krit1^ECKO BMEC; assay: KLF2 and KLF4 mRNA in Krit1^ECKO BMEC (RT-qPCR); type: cell-based, mouse; conditions: in vitro, FIG. 5d
Description: as §1
Primary BMEC, human umbilical vein endothelial cells (HUVEC) and freshly isolated brain microvasculature total RNA were isolated using Trizol reagent, according to the manufacturer's protocol (ThermoFisher). For gene expression analysis, single stranded cDNA was produced from 10 ng of total RNA of BMEC using SuperScript III First-Strand synthesis and random primers according to the manufacture's protocol (ThermoFisher). KAPPA SyberFast qPCR kit (Kapa Biosystems) and thermal cycler (CFX96 Real-Time System, Bio-Rad) were used to determine the relative levels of the genes analyzed (primer sequences not shown) according to the manufacturer's protocol. Actin mRNA levels were used as an internal control and the 2^−ΔΔCT method was used for analysis of the data. […]

Molecule	ZO1 junctional staining following Krit1 inactivation ([1]; 2 μM SU5416, Krit1^ECKO BMEC, FIG. 13c)	ZO-1 at BMEC tight junctions following Krit1 inactivation ([1]; 5 nM mouse recombinant TSP1, Krit1^ECKO BMEC, FIG. 3a)	rise in KLF2 or KLF4 mRNA following Krit1 inactivation [2]
Cc1cc(C)c(/C=C2\C(=O)Nc3ccccc32)[nH]1 [SU5416, reference compound]	continuous ZO1 junctional staining	–	–
TSP1: mouse recombinant full length thrombospondin 1 (R&D systems, 7859-TH), a large (~450 kDa) glycoprotein	–	continuous ZO1 junctional staining; also recorded: prevented the loss of ZO-1 from BMEC tight junctions	Neither TSP1 nor 3TSR prevented

Reference: US20190111111A1, “Treatment of Cerebral Cavernous Malformations” (The Regents of the University of California, priority 2016, published 2019)
